Results from patent US10112918B2, “15-oxospiramilactone derivatives, preparation method and uses thereof” (Kunming Institute of Botany, The Chinese Academy of Sciences, priority 2013, dated 2018).
Like-named read-outs stand apart in the source and are kept apart here. Each block holds one compound with its values, some of them ahead of it.

Tests used:
Type in all cases: cell-based
[1] = system: SW-480 (human colon cancer cells); assay: MTT inhibition of tumor cell growth, SW-480
Procedure: (§1) 1. Inoculating cells: the culture medium DMEM or RMPI1640 containing 10% fetal bovine serum was used to prepare a single cell suspension, and the cell suspension was inoculated to a 96-well plate at 5000-10000 cells per well (100 μl for each well); Adherent cells were inoculated and cultured for 12 h in advance. HL-60 (human promyelocytic leukemia cells), SMMC-7721 (human hepatoma cells), A-549 (Human lung adenocarcinoma cells), MCF-7 (human breast cancer cells), SW-480 (human colon cancer cells) were purchased from the Cell Bank of the Chinese Academy of Sciences, Shanghai.
(§2) 2. The solution of the compound to be tested (40 μM for primary screening; 5 concentrations were set for gradient re-screening for the compounds which achieve about 50% inhibition of tumor cell growth at 40 μM) was added, the final volume of each well was 200 μl, and triplicate wells were set for each test.
(§3) 3. Coloration: After culturing at 37° C. for 48 h, MTT solution (20 μl) was added to each well. After incubation for another 4 h, the culture was stopped. The supernatant in each well was pipetted and discarded, and 200 μl SDS solution (10%) was added to each well. Incubation was performed overnight (at 37° C.), to completely dissolve the crystal.
(§4) 4. Colorimetric assay: ELISA Reader (Bio-Rad 680) was used to obtain the light absorption for each well at a wavelength of 595 nm, the results were recorded. A cell growth curve was plotted with the concentration as abscissa and the cell survival percentage as ordinate. The two-point method (Reed and Muench method) was used to calculate the IC50 of the compound.

[2] = system: SMMC-7721 (human hepatoma cells); assay: MTT inhibition of tumor cell growth, SMMC-7721
Procedure: as §1, §2, §3, §4

[3] = system: HL-60 (human promyelocytic leukemia cells); assay: MTT inhibition of tumor cell growth, HL-60
Procedure: as §1, §2, §3, §4

[4] = system: A-549 (Human lung adenocarcinoma cells); assay: MTT inhibition of tumor cell growth, A-549
Procedure: as §1, §2, §3, §4

[5] = system: MCF-7 (human breast cancer cells); assay: MTT inhibition of tumor cell growth, MCF-7
Procedure: as §1, §2, §3, §4

[6] = Homo sapiens, SW480, 48 h, Table 6, 7-carbonyl derivatives, read-out: IC50 SW-480, 7-carbonyl derivatives
[7] = Homo sapiens, SW480, 48 h, Table 6, 7-hydroxyl derivatives and controls, read-out: IC50 SW-480, 7-hydroxyl derivatives
[8] = Homo sapiens, SW480, 48 h, Table 6, double Michael reaction acceptor derivatives, read-out: IC50 SW-480, derivatives having double Michael reaction acceptor
[9] = Homo sapiens, SMMC-7721, 48 h, Table 7 (first), alkaloid derivatives
[10] = Homo sapiens, HL-60, 48 h, Table 7 (first), alkaloid derivatives
[11] = Homo sapiens, A549, 48 h, Table 7 (first), alkaloid derivatives
[12] = Homo sapiens, SW480, 48 h, Table 7 (first), alkaloid derivatives, read-out: IC50 SW-480
[13] = Homo sapiens, MCF7, 48 h, Table 7 (first), alkaloid derivatives
[14] = Table 1, 7-hydroxy derivatives of S-3, 48 h
[15] = Table 2, derivatives having potential Michael reaction acceptor, 48 h
[16] = Table 3, single Michael reaction acceptor, modified lactonic ring, 48 h
[17] = Table 4, derivatives obtained by reduction of the lactonic ring, 48 h
[18] = Table 5, derivatives having double Michael reaction acceptor, 48 h
[19] = Table 7 (first), alkaloid derivatives, 48 h

SMILES: C=C1C(=O)C23CC[C@H]1CC2[C@@]12CCC[C@@](C)(COS(=O)OC1)C2CC3=O (stereo partly drawn) [Compound 42]
IC50 [1, 6]: 1.83 µM

SMILES: C=C1C(=O)C23CC[C@H]1CC2[C@]1(COC(=O)c2cccs2)CCC[C@@](C)(COC(=O)c2cccs2)C1C[C@H]3O (stereo partly drawn) [Compound 63]
IC50 [1, 7]: 2.97 µM

SMILES: C=C1C(=O)C23CC[C@H]1CC2[C@]1(COC(C)=O)CCC[C@@](C)(COC(=O)c2cccs2)C1C[C@H]3O (stereo partly drawn) [Compound 70]
IC50 [1, 7]: 1.69 µM

SMILES: C=C1C(=O)C23CC[C@H]1CC2[C@]1(COC(=O)c2ccccc2)CCC[C@@](C)(COC(=O)c2ccccc2)C1C[C@H]3O (stereo partly drawn) [Compound 72d]
IC50 [1, 7]: 0.52 µM

SMILES: C=C1C(=O)[C@]23CC[C@H]1CC2[C@@]12CCC[C@@]4(C)CN(CCO)[C@@H]1O[C@@H]3CC42 (stereo partly drawn) [Compound 82]
IC50 ([2]; Homo sapiens, SMMC-7721, Table 7 (first), alkaloid derivatives, 48 h): 23.6 µM | IC50 ([3]; Homo sapiens, HL-60, Table 7 (first), alkaloid derivatives, 48 h): 19.3 µM | IC50 ([4]; Homo sapiens, A549, Table 7 (first), alkaloid derivatives, 48 h): 18.6 µM | IC50 ([1]; Homo sapiens, SW480, Table 7 (first), alkaloid derivatives, 48 h, read-out: IC50 SW-480): 14 µM | IC50 ([5]; Homo sapiens, MCF7, Table 7 (first), alkaloid derivatives, 48 h): 10.3 µM

SMILES: C=C1C(=O)[C@@]23CC[C@@H](CC2[C@@]24CCC[C@@](C)(CN(CCO[Si](C)(C)C(C)(C)C)C2)C14)C(=C)C3=O (stereo partly drawn) [Compound 92]
IC50 [2, 9]: 2.63 µM | IC50 [3, 10]: 1.39 µM | IC50 [4, 11]: 1.55 µM | IC50 [1, 12]: 2.78 µM | IC50 [5, 13]: 2.9 µM

SMILES: CC(=O)O[C@H]1C(=O)[C@@]2(C)[C@H]([C@H](OC(=O)c3ccccc3)[C@]3(O)C[C@H](OC(=O)[C@H](O)[C@@H](NC(=O)c4ccccc4)c4ccccc4)C(C)=C1C3(C)C)[C@]1(OC(C)=O)CO[C@@H]1C[C@@H]2O [TAXOL, reference compound]
IC50 ([2]; Homo sapiens, SMMC-7721, 48 h, Table 1, 7-hydroxy derivatives of S-3): < 0.008 µM | IC50 ([2]; Homo sapiens, SMMC-7721, 48 h, Table 2, derivatives having potential Michael reaction acceptor): < 0.008 µM | IC50 ([2]; Homo sapiens, SMMC-7721, 48 h, Table 3, single Michael reaction acceptor, modified lactonic ring): < 0.008 µM | IC50 ([2]; Homo sapiens, SMMC-7721, 48 h, Table 4, derivatives obtained by reduction of the lactonic ring): < 0.008 µM | IC50 ([2]; Homo sapiens, SMMC-7721, 48 h, Table 5, derivatives having double Michael reaction acceptor): < 0.008 µM | IC50 [2, 9]: < 0.008 µM | IC50 ([3]; Homo sapiens, HL-60, 48 h, Table 1, 7-hydroxy derivatives of S-3): < 0.008 µM | IC50 ([3]; Homo sapiens, HL-60, 48 h, Table 2, derivatives having potential Michael reaction acceptor): < 0.008 µM | IC50 ([3]; Homo sapiens, HL-60, 48 h, Table 3, single Michael reaction acceptor, modified lactonic ring): < 0.008 µM | IC50 ([3]; Homo sapiens, HL-60, 48 h, Table 4, derivatives obtained by reduction of the lactonic ring): < 0.008 µM | IC50 ([3]; Homo sapiens, HL-60, 48 h, Table 5, derivatives having double Michael reaction acceptor): < 0.008 µM | IC50 [3, 10]: < 0.008 µM | IC50 ([4]; Homo sapiens, A549, 48 h, Table 1, 7-hydroxy derivatives of S-3): < 0.008 µM | IC50 ([4]; Homo sapiens, A549, 48 h, Table 2, derivatives having potential Michael reaction acceptor): < 0.008 µM | IC50 ([4]; Homo sapiens, A549, 48 h, Table 3, single Michael reaction acceptor, modified lactonic ring): < 0.008 µM | IC50 ([4]; Homo sapiens, A549, 48 h, Table 4, derivatives obtained by reduction of the lactonic ring): < 0.008 µM | IC50 ([4]; Homo sapiens, A549, 48 h, Table 5, derivatives having double Michael reaction acceptor): < 0.008 µM | IC50 [4, 11]: < 0.008 µM | IC50 ([1]; Homo sapiens, SW480, 48 h, Table 1, 7-hydroxy derivatives of S-3, read-out: IC50 SW-480): < 0.008 µM | IC50 ([1]; Homo sapiens, SW480, 48 h, Table 2, derivatives having potential Michael reaction acceptor, read-out: IC50 SW-480): < 0.008 µM | IC50 ([1]; Homo sapiens, SW480, 48 h, Table 3, single Michael reaction acceptor, modified lactonic ring, read-out: IC50 SW-480): < 0.008 µM | IC50 ([1]; Homo sapiens, SW480, 48 h, Table 4, derivatives obtained by reduction of the lactonic ring, read-out: IC50 SW-480): < 0.008 µM | IC50 ([1]; Homo sapiens, SW480, 48 h, Table 5, derivatives having double Michael reaction acceptor, read-out: IC50 SW-480): < 0.008 µM | IC50 [1, 7]: < 0.008 µM | IC50 [1, 12]: < 0.008 µM | IC50 ([5]; Homo sapiens, MCF7, 48 h, Table 1, 7-hydroxy derivatives of S-3): < 0.008 µM | IC50 ([5]; Homo sapiens, MCF7, 48 h, Table 2, derivatives having potential Michael reaction acceptor): < 0.008 µM | IC50 ([5]; Homo sapiens, MCF7, 48 h, Table 3, single Michael reaction acceptor, modified lactonic ring): < 0.008 µM | IC50 ([5]; Homo sapiens, MCF7, 48 h, Table 4, derivatives obtained by reduction of the lactonic ring): < 0.008 µM | IC50 ([5]; Homo sapiens, MCF7, 48 h, Table 5, derivatives having double Michael reaction acceptor): < 0.008 µM | IC50 [5, 13]: < 0.008 µM

SMILES: [NH2][Pt]([NH2])([Cl])[Cl] [cis-DDP, reference compound]
IC50 [2, 14]: 8.86 µM | IC50 [2, 15]: 8.86 µM | IC50 [2, 16]: 8.86 µM | IC50 [2, 17]: 8.86 µM | IC50 [2, 18]: 8.86 µM | IC50 [2, 19]: 10.2 µM | IC50 [3, 14]: 1.81 µM | IC50 [3, 15]: 1.81 µM | IC50 [3, 16]: 1.81 µM | IC50 [3, 17]: 1.81 µM | IC50 [3, 18]: 1.81 µM | IC50 [3, 19]: 3.08 µM | IC50 [4, 14]: 11.7 µM | IC50 [4, 15]: 11.7 µM | IC50 [4, 16]: 11.7 µM | IC50 [4, 17]: 11.7 µM | IC50 [4, 18]: 11.7 µM | IC50 [4, 19]: 9.08 µM | IC50 ([1]; Table 1, 7-hydroxy derivatives of S-3, 48 h, read-out: IC50 SW-480): 16.6 µM | IC50 ([1]; Table 2, derivatives having potential Michael reaction acceptor, 48 h, read-out: IC50 SW-480): 16.6 µM | IC50 ([1]; Table 3, single Michael reaction acceptor, modified lactonic ring, 48 h, read-out: IC50 SW-480): 16.6 µM | IC50 ([1]; Table 4, derivatives obtained by reduction of the lactonic ring, 48 h, read-out: IC50 SW-480): 16.6 µM | IC50 ([1]; Table 5, derivatives having double Michael reaction acceptor, 48 h, read-out: IC50 SW-480): 16.6 µM | IC50 ([1]; Table 6, 7-hydroxyl derivatives and controls, 48 h, read-out: IC50 SW-480, 7-hydroxyl derivatives): 11.1 µM | IC50 ([1]; Table 7 (first), alkaloid derivatives, 48 h, read-out: IC50 SW-480): 12 µM | IC50 [5, 14]: 15.9 µM | IC50 [5, 15]: 15.9 µM | IC50 [5, 16]: 15.9 µM | IC50 [5, 17]: 15.9 µM | IC50 [5, 18]: 15.9 µM | IC50 [5, 19]: 17.5 µM

Now from value to compound:

IC50 [1, 7]: 0.81 µM
SMILES: C=C1C(=O)C23CC[C@H]1CC2[C@]1(COC(=O)CC)CCC[C@@](C)(COC(=O)CC)C1C[C@H]3O (stereo partly drawn) [Compound 72c]

IC50 [1, 6]: 0.69 µM
SMILES: C=C1C(=O)C23CC[C@H]1CC2[C@]1(COC(=O)CC)CCC[C@@](C)(COC(=O)CC)C1CC3=O (stereo partly drawn) [Compound 73c]

IC50 [1, 6]: 0.62 µM
SMILES: C=C1C(=O)C23CC[C@H]1CC2[C@]1(COC(=O)c2ccccc2)CCC[C@@](C)(COC(=O)c2ccccc2)C1CC3=O (stereo partly drawn) [Compound 73d]

IC50 [1, 8]: 0.33 µM
SMILES: C=C1C(=O)C23CC[C@@H](CC2[C@]2(COC(=O)CC)CCC[C@@](C)(COC(=O)CC)C12)C(=C)C3=O (stereo partly drawn) [Compound 74c]

IC50 [1, 8]: 0.15 µM
SMILES: C=C1C(=O)C23CC[C@@H](CC2[C@]2(COC(=O)c4ccccc4)CCC[C@@](C)(COC(=O)c4ccccc4)C12)C(=C)C3=O (stereo partly drawn) [Compound 74d]
